Data taken from publication PMC2812660 (Biochemical and biophysical research communications, 2009).
*1 amine or outer side, *2 acyl side, *3 side chain or, on linkers, in order; H or OH if unused. Where a SMILES comes first, the peptide text is derived from it. The star is where a group is joined. AMC = Cc1cc(=O)oc2cc(N*)ccc12; Suc = O=C(CCC(=O)[*:2])[*:1]

Target: 20S proteasome (Oryctolagus cuniculus, UniProt G1T4Q9)
Test: fluorogenic chymotrypsin-like activity assay
Assay type: biochemical
Conditions: chymotrypsin-like site; control incubation without added SAM/SAH

Structure (SMILES): Cc1cc(=O)oc2cc(NC(=O)[C@H](Cc3ccc(O)cc3)NC(=O)[C@@H](NC(=O)[C@H](CC(C)C)NC(=O)[C@H](CC(C)C)NC(=O)CCC(=O)O)C(C)C)ccc12 [Suc-LLVY-AMC] (Suc-LLVY-{AMC})
- fluorogenic chymotrypsin-like activity assay: activity was detected in vitro using the fluorogenic substrate Suc-LLVY-AMC
